Test results reported in patent publication US20240199676A1, “ANTIVIRAL COMPOUNDS AND METHODS OF MAKING AND USING THE SAME” (Gilead Sciences, Inc., priority 2022, published 2024).

How the values were obtained:
[1] = GI S9 stability (Ex. Z), rat intestinal S9; format: in vitro ADME; conditions: pooled intestinal S9 fractions; rat intestinal S9, 1.0 mg/mL protein, 2 μM substrate, pH 7.4; read-out: GIS9 Rat T½ (per Ex. Z)
Procedure: (§1) Example Z: GI S9 stability data:
(§2) Stock solutions of test compounds in dimethyl sulfoxide (DMSO) having a final concentration of 10 mM were prepared and used in all experiments. Sekisui XenoTech (Kansas City, KS) provided pooled intestinal S9 fractions. All other chemicals were purchased from Sigma-Aldrich (St. Louis, MO) or VWR (West Chester, PA). Internal Standard/Quench (IS/Q) used to stop reactions was 100 nM labetalol in (by volume) methanol (10%) and acetonitrile (90%).
(§3) Stability in Intestinal S9 Fractions: Duplicate aliquots of test compound or positive control substrate were added to S9 stock diluted with phosphate buffered saline (137 mM NaCl, 2.7 mM KCl, 10 mM phosphate buffer), pH 7.4, to obtain a protein concentration of 1.0 mg/mL. The metabolic reactions were initiated by the addition of the substrates to the S9 reaction mixture to a final concentration of 2 μM. At 0, 10, 20, 30, 60 and 120 min, 25 μL aliquots of the reaction mixture were transferred to plates containing 225 μl of IS/Q solution. After quenching, the plates were centrifuged at 3000×g for 30 minutes. 150 μL aliquots of each supernatant were dried down then reconstituted with 300 μL water. Aliquots (10 μL) of the prepared samples were analyzed on a Thermo Q-Exactive mass spectrometer as described below.
(§4) Liquid Chromatography—Mass Spectrometry: Quantification of test compounds and control substrate was performed by analyte/internal standard peak area ratio (PAR) values measured on a Thermo Q-Exactive mass spectrometer coupled to a Dionex UltiMate 3000 HPLC with a Leap Technologies HTC PAL autosampler. The column used for analysis was a Waters Acquity BEH C18 (1.7 μm particle size, 2.1×50 mm). Mobile phase A consisted of 0.1% (v/v) formic acid in water. Mobile phase B consisted of 0.1% (v/v) formic acid in acetonitrile. Elution of analytes was achieved by a series of linear gradients varying the proportions of A and B. The mass spectrometer was calibrated on a weekly basis and mass tolerance of 5 ppm was used.
(§5) Metabolic stabilities in S9 fractions were determined by measuring the rates of disappearance of test compound and positive control substrate.
(§6) Data (% of substrate remaining) were plotted on a semi-log scale and fitted using an exponential decline model:
(§7) Where Ct—% of substrate remaining at time=t; C0—% of substrate remaining at time=0; t—time; T½—half-life The Half-life (T½) is determined by the following equation: […]
(§8) Assuming a first-order reaction, the slope (k) is extrapolated from the aforementioned plotted data.

[2] = GI S9 stability (Ex. Z), cyno intestinal S9; format: in vitro ADME; conditions: cynomolgus monkey, pooled intestinal S9 fractions; cyno intestinal S9, 1.0 mg/mL protein, 2 μM substrate, pH 7.4; read-out: GIS9 Cyno T½ (per Ex. Z)
Procedure: as §1, §2, §3, §4, §5, §6, §7, §8

[3] = tested on: Respiratory syncytial virus recombinant with luciferase (RSV-Luc5) in NHBE cells; test: NHBE RSV-Luc5 384-well Assay (RSV FLUC NHBE 384 V2, Ex. W); format: cell-based; conditions: human respiratory syncytial virus, 72 h, read-out: EC50 RSV FLUC NHBE 384 V2 (per Ex. W)
Source text: Example W: NHBE RSV-Luc5 384-well Assay (EC50 RSVFLUC NHBE-384)
Normal Human Bronchial Epithelial (NHBE) cells were purchased from Lonza (Walkersville, MD Cat #CC2540) and maintained in BEGM Bronchial Epithelial Cell Growth Medium BulletKit (Lonza CC-3170).
Cells were thawed, expanded, and were used for experiments at passage 2. Respiratory syncytial virus recombinant with luciferase (RSV-Luc5) (≥1×10^7 Infectious Units/mL (IU/mL) determined by TCID50) was purchased from Microbiologics (Saint Cloud, MN). Viral replication was determined in NHBE cells in the following manner.
(§9) Compounds are prepared in 100% DMSO in 384-well polypropylene plates (Greiner, Monroe, NC, Cat #784201) with 8 compounds per plate in grouped replicates of 4 at 10 serially diluted concentrations (1:3). The serially diluted compounds were transferred to low dead volume Echo plates (Labcyte, Sunnyvale, CA, Cat #LP-0200).
The test compounds were spotted to 384-well assay plates (Greiner, Monroe, NC, Cat#781091) at 200 nL per well using an Echo acoustic dispenser (Labcyte, Sunnyvale, CA). NHBE cells were harvested and suspended in BEGM Bronchial Epithelial Cell Growth Medium BulletKit and seeded to the pre-spotted assay plates at 5,000 cells per well in 30 μL. RSV-Luc5 virus was diluted in BEGM Bronchial Epithelial Cell Growth Medium BulletKit at 500,000 Infectious Units (IU) per mL and 10 μL per well was added to the assay plates containing cells and compounds, for an MOI of 1. The assay plates were incubated for 3 days at 37° C. and 5% CO2. At the end of incubation, One-Glo reagent (Promega, Madison, WI, Cat #E6120) was prepared. The assay plates and One-Glo reagent were equilibrated to room temperature for at least 15 minutes. 40 μL per well of One-Glo reagent was added and the plates were incubated at room temperature for 15 minutes before reading the luminescence signal on an EnVision multimode plate reader (Perkin Elmer, Waltham, MA). Remdesivir was used as positive control and DMSO was used as negative control. Values were normalized to the positive and negative controls (as 0% and 100% replication, respectively) and data was fitted using non-linear regression analysis by Gilead's dose response tool. The EC50 value for each compound was defined as the concentration reducing the viral replication by 50%.

[4] = GI S9 stability (Ex. Z), dog intestinal S9; format: in vitro ADME; conditions: pooled intestinal S9 fractions; dog intestinal S9, 1.0 mg/mL protein, 2 μM substrate, pH 7.4; read-out: GIS9 DOG T½ (per Ex. Z)
Procedure: as §1, §2, §3, §4, §5, §6, §7, §8

[5] = tested on: Respiratory syncytial virus recombinant with luciferase (RSV-Luc5) in HEp-2 cells; test: HEp-2 RSV-Luc5 384-well Assay (EC50 RSVFLUC Hep2-384 v2, Ex. V); format: cell-based; conditions: human respiratory syncytial virus, HEp-2, 72 h, read-out: EC50 RSV FLuc Hep-2 384 V2 (per Ex. V)
Source text: Example V: HEp-2 RSV-Luc5 384-well Assay (EC50 RSVFLUC Hep2-384 v2)
HEp-2 cell line was purchased from ATCC (Manassas, VA Cat #CCL-23) and maintained in Dulbecco's […] (DMEM) (Corning, New York, NY, Cat #15-018CM) supplemented with 10% fetal bovine serum (FBS) (Hyclone, Logan, UT, Cat #SH30071-03) and 1× Penicillin-Streptonycin-L-Glutamine (Corning, New York, NY, Cat #30-009-CI). Cells were passaged 2 times per week to maintain sub-confluent densities and were used for experiments at passage 5-20. Respiratory syncytial virus recombinant with luciferase (RSV-Luc5) (≥1 ×107 TCID50/ml) was purchased from Microbiologics (Saint Cloud, MN). Viral replication was determined in HEp-2 cells in the following manner.
as §9
The test compounds were spotted to 384-well assay plates (Greiner, Monroe, NC, Cat#781091) at 200 nL per well. HEp-2 cells were harvested and suspended in DMEM (supplemented with 10% FBS and 1× Penicillin-Streptonycin-L-Glutamine) and seeded to the pre-spotted assay plates at 4,000 cells per well in 30 μL. RSV-Luc5 viruses were diluted in DMEM (supplemented with 10% FBS and 1× Penicillin-Streptomycin-L-Glutamine) at 200,000 Infectious Units (IU) per mL and 10 μL per well was added to the assay plates containing cells and compounds, for an MOI=0.5. The assay plates were incubated for 3 days at 37° C. and 5% CO2. At the end of incubation, One-Glo reagent (Promega, Madison, WI, Cat #E6120) was prepared. The assay plates and One-Glo reagent were equilibrated to room temperature for at least 15 minutes. 40 μL per well of One-Glo reagent was added and the plates were incubated at room temp for 15 minutes before reading the luminescence signal on an EnVision multimode plate reader (Perkin Elmer, Waltham, MA). Remdesivir was used as positive control and DMSO was used as negative control. Values were normalized to the positive and negative controls (as 0% and 100% replication, respectively) and data was fitted using non-linear regression analysis by Gilead's dose response tool. The EC50 value for each compound was then determined as the concentration reducing the viral replication by 50%.

| Structure (SMILES) | half-life at 2 μM [1] | half-life at 2 μM [2] | EC50 [3] | half-life at 2 μM [4] | EC50 [5] |
| --- | --- | --- | --- | --- | --- |
| CC(C)C(=O)Nc1ncnn2c([C@@H]3O[C@](C#N)(COC(=O)C(C)C)[C@@H](OC(=O)C(C)C)[C@H]3OC(=O)C(C)C)ccc12 [Compound 21, (2R,3S,4S,5S)-2-cyano-5-(4-isobutyramidopyrrolo[2,1-f][1,2,4]triazin-7-yl)-2-((isobutyryloxy)methyl)tetrahydrofuran-3,4-diyl bis(2-methylpropanoate)] | 1 min | 4 min | 9.08 µM | 5 min | – |
| CC(=O)Nc1ncnn2c([C@@H]3O[C@](C#N)(COC(C)=O)[C@@H](O)[C@H]3O)ccc12 [Compound 31] | – | – | 50 µM | – | 50 µM |
